# Reference: ChEMBL document CHEMBL1201862, “PubChem BioAssay data set” (2004)
#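 Protocol summary: plate cells (96-well), add compound at 5 concentrations, incubate 48 h, interpolate endpoints linearly. GI50 marks 50% less growth.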 Active and inactive are the calls of the source. No stated cut-off is given here; in the data, active = GI50 up to about 1.1 µM and inactive = higher.
# Tests used:
# Assay in all cases: inhibition of tumour cell growth, NCI panel, 48 h
# 786-0 = test system: 786-0
# A498 = test system: A498
# A549 = test system: A549
# ACHN = test system: ACHN
# BT-549 = test system: BT-549
# CAKI-1 = test system: CAKI-1
# CCRF-CEM = test system: CCRF-CEM
# COLO 205 = test system: COLO 205
# DLD-1 = test system: DLD-1
# DMS-114 = test system: DMS-114
# DMS-273 = test system: DMS-273
# DU-145 = test system: DU-145
# EKVX = test system: EKVX
# HCC 2998 = test system: HCC 2998
# HCT-116 = test system: HCT-116
# HCT-15 = test system: HCT-15
# HL-60 = test system: HL-60
# HOP-18 = test system: HOP-18
# HOP-62 = test system: HOP-62
# HOP-92 = test system: HOP-92
# HT-29 = test system: HT-29
# Hs-578T = test system: Hs-578T
# IGROV-1 = test system: IGROV-1
# K562 = test system: K562
# KM-20L2 = test system: KM-20L2
# KM12 = test system: KM12
# LOX IMVI = test system: LOX IMVI
# LXFL 529 = test system: LXFL 529
# M14 = test system: M14
# M19-MEL = test system: M19-MEL
# MCF7 = test system: MCF7
# MDA-MB-231 = test system: MDA-MB-231
# MDA-MB-435 = test system: MDA-MB-435
# MDA-N = test system: MDA-N
# MOLT-4 = test system: MOLT-4
# Malme-3M = test system: Malme-3M
# NCI-H226 = test system: NCI-H226
# NCI-H23 = test system: NCI-H23
# NCI-H460 = test system: NCI-H460
# NCI-H522 = test system: NCI-H522
# NCI/ADR-RES = test system: NCI/ADR-RES
# OVCAR-3 = test system: OVCAR-3
# OVCAR-4 = test system: OVCAR-4
# OVCAR-5 = test system: OVCAR-5
# OVCAR-8 = test system: OVCAR-8
# PC-3 = test system: PC-3
# RPMI-8226 = test system: RPMI-8226
# RXF 393 = test system: RXF 393
# RXF 631 = test system: RXF 631
# SF-268 = test system: SF-268
# SF-295 = test system: SF-295
# SF-539 = test system: SF-539
# SK-MEL-28 = test system: SK-MEL-28
# SK-MEL-2 = test system: SK-MEL-2
# SK-MEL-5 = test system: SK-MEL-5
# SK-OV-3 = test system: SK-OV-3
# SN12C = test system: SN12C
# SNB-19 = test system: SNB-19
# SNB-75 = test system: SNB-75
# SNB-78 = test system: SNB-78
# SR = test system: SR
# SW-620 = test system: SW-620
# T47D = test system: T47D
# TK-10 = test system: TK-10
# U-251 = test system: U-251
# UACC-257 = test system: UACC-257
# UACC-62 = test system: UACC-62
# UO-31 = test system: UO-31
# XF498 = test system: XF498
smiles,measurement,setting,value
COc1nc(N)nc2nc[nH]c12,GI50,786-0,489 µM (inactive)
same,GI50,A498,228 µM (inactive)
same,GI50,A549,> 500 µM (inactive)
same,GI50,ACHN,328 µM (inactive)
same,GI50,BT-549,232 µM (inactive)
same,GI50,CAKI-1,162 µM (inactive)
same,GI50,CCRF-CEM,331 µM (inactive)
same,GI50,COLO 205,393 µM (inactive)
same,GI50,DLD-1,385 µM (inactive)
same,GI50,DMS-114,467 µM (inactive)
same,GI50,DMS-273,430 µM (inactive)
same,GI50,DU-145,478 µM (inactive)
same,GI50,EKVX,> 387 µM (inactive)
same,GI50,HCC 2998,> 500 µM (inactive)
same,GI50,HCT-116,463 µM (inactive)
same,GI50,HCT-15,445 µM
same,GI50,HL-60,383 µM (inactive)
same,GI50,HOP-18,360 µM (inactive)
same,GI50,HOP-62,172 µM (inactive)
same,GI50,HOP-92,235 µM (inactive)
same,GI50,HT-29,495 µM (inactive)
same,GI50,Hs-578T,416 µM (inactive)
same,GI50,IGROV-1,239 µM (inactive)
same,GI50,K562,> 500 µM (inactive)
same,GI50,KM-20L2,> 500 µM (inactive)
same,GI50,KM12,> 500 µM (inactive)
same,GI50,LOX IMVI,381 µM (inactive)
same,GI50,LXFL 529,> 800 µM (inactive)
same,GI50,M14,478 µM (inactive)
same,GI50,M19-MEL,> 500 µM (inactive)
same,GI50,MCF7,490 µM (inactive)
same,GI50,MDA-MB-231,444 µM (inactive)
same,GI50,MDA-MB-435,> 500 µM (inactive)
same,GI50,MDA-N,> 500 µM (inactive)
same,GI50,MOLT-4,474 µM (inactive)
same,GI50,Malme-3M,290 µM (inactive)
same,GI50,NCI-H226,318 µM (inactive)
same,GI50,NCI-H23,> 500 µM (inactive)
same,GI50,NCI-H460,430 µM (inactive)
same,GI50,NCI-H522,440 µM (inactive)
same,GI50,NCI/ADR-RES,> 500 µM (inactive)
same,GI50,OVCAR-3,497 µM (inactive)
same,GI50,OVCAR-4,479 µM (inactive)
same,GI50,OVCAR-5,345 µM (inactive)
same,GI50,OVCAR-8,> 500 µM (inactive)
same,GI50,PC-3,466 µM (inactive)
same,GI50,RPMI-8226,417 µM (inactive)
same,GI50,RXF 393,313 µM (inactive)
same,GI50,RXF 631,647 µM (inactive)
same,GI50,SF-268,435 µM (inactive)
same,GI50,SF-295,> 500 µM (inactive)
same,GI50,SF-539,495 µM (inactive)
same,GI50,SK-MEL-28,> 419 µM (inactive)
same,GI50,SK-MEL-2,460 µM (inactive)
same,GI50,SK-MEL-5,> 500 µM (inactive)
same,GI50,SK-OV-3,129 µM (inactive)
same,GI50,SN12C,441 µM (inactive)
same,GI50,SNB-19,> 500 µM (inactive)
same,GI50,SNB-75,208 µM (inactive)
same,GI50,SNB-78,287 µM (inactive)
same,GI50,SR,313 µM (inactive)
same,GI50,SW-620,> 500 µM (inactive)
same,GI50,T47D,418 µM (inactive)
same,GI50,TK-10,242 µM (inactive)
same,GI50,U-251,488 µM (inactive)
same,GI50,UACC-257,486 µM (inactive)
same,GI50,UACC-62,160 µM (inactive)
same,GI50,UO-31,239 µM (inactive)
same,GI50,XF498,279 µM (inactive)
COc1ccc(CCc2cc(OC)cc(OC)c2)cc1,GI50,786-0,47.1 µM (inactive)
same,GI50,A498,17 µM (inactive)
same,GI50,A549,19.2 µM (inactive)
same,GI50,ACHN,58.5 µM (inactive)
same,GI50,CAKI-1,13.2 µM (inactive)
same,GI50,CCRF-CEM,15.6 µM (inactive)
same,GI50,COLO 205,12 µM (inactive)
same,GI50,DLD-1,23.1 µM (inactive)
same,GI50,DMS-114,3.9 µM (inactive)
same,GI50,DMS-273,5.15 µM (inactive)
same,GI50,EKVX,45.1 µM (inactive)
same,GI50,HCC 2998,10.2 µM (inactive)
same,GI50,HCT-116,24.3 µM (inactive)
same,GI50,HCT-15,7.06 µM
same,GI50,HL-60,8.69 µM (inactive)
same,GI50,HOP-18,> 32.4 µM (inactive)
same,GI50,HOP-62,16.7 µM (inactive)
same,GI50,HOP-92,38.3 µM (inactive)
same,GI50,HT-29,6.11 µM (inactive)
same,GI50,IGROV-1,43 µM (inactive)
same,GI50,K562,3.34 µM (inactive)
same,GI50,KM-20L2,13.6 µM (inactive)
same,GI50,KM12,4.92 µM (inactive)
same,GI50,LOX IMVI,38.8 µM (inactive)
same,GI50,LXFL 529,32.9 µM (inactive)
same,GI50,M14,25.2 µM (inactive)
same,GI50,M19-MEL,25.3 µM (inactive)
same,GI50,MOLT-4,8.17 µM (inactive)
same,GI50,Malme-3M,33.7 µM (inactive)
same,GI50,NCI-H226,30.7 µM (inactive)
same,GI50,NCI-H23,24.2 µM (inactive)
same,GI50,NCI-H460,22 µM (inactive)
same,GI50,NCI-H522,4.98 µM (inactive)
same,GI50,OVCAR-3,10.9 µM (inactive)
same,GI50,OVCAR-4,27 µM (inactive)
same,GI50,OVCAR-5,> 61.5 µM (inactive)
same,GI50,OVCAR-8,66.4 µM (inactive)
same,GI50,RPMI-8226,16.1 µM (inactive)
same,GI50,RXF 393,18 µM (inactive)
same,GI50,RXF 631,13.7 µM (inactive)
same,GI50,SF-268,39.4 µM (inactive)
same,GI50,SF-295,22.6 µM (inactive)
same,GI50,SF-539,31.6 µM (inactive)
same,GI50,SK-MEL-28,29.6 µM (inactive)
same,GI50,SK-MEL-2,11.1 µM (inactive)
same,GI50,SK-MEL-5,19.2 µM (inactive)
same,GI50,SK-OV-3,36.6 µM (inactive)
same,GI50,SN12C,45.9 µM (inactive)
same,GI50,SNB-19,> 100 µM (inactive)
same,GI50,SNB-75,32.9 µM (inactive)
same,GI50,SNB-78,51.4 µM (inactive)
same,GI50,SR,9.71 µM (inactive)
same,GI50,SW-620,5.93 µM (inactive)
same,GI50,TK-10,54.2 µM (inactive)
same,GI50,U-251,31.6 µM (inactive)
same,GI50,UACC-257,51.4 µM (inactive)
same,GI50,UACC-62,11.9 µM (inactive)
same,GI50,UO-31,52.7 µM (inactive)
same,GI50,XF498,16.7 µM (inactive)
